Consider 16 molecules from ChEMBL document CHEMBL1123244, “Synthesis and aldose reductase inhibitory activity of substituted 2-oxoquinoline-1-acetic acid derivatives” (J Med Chem, 1986).

Structures are written as SMILES. Active and inactive are the calls of the source. No cut-off for these calls is given here.

In general, inhibition refers to the relative decrease from the control value, in per cent. The IC50 is the concentration that inhibits the measured activity by half. Lower therefore signals inhibition by little substance.

In one experiment the target is Aldo-keto reductase family 1 member B1 (Rattus norvegicus) (UniProt P07943). The experiment in a line: Compound was tested for inhibition of crude aldose reductase obtained from rat lens, at the concentration of 100 uM; Inactive.
For `CCOC(=O)Cn1c(=O)cc(C)c2ccccc21`, the inhibition result was “inactive”.

The next experiment has the same target. Description: Compound was tested for inhibition of crude aldose reductase obtained from rat lens, at the concentration of 100 uM.
As for `Cc1cc(=O)[nH]c2ccccc12`, the inhibition is 24%.

In the case of `CC(=O)Oc1cccc2ccc(O)nc12`, the inhibition stood at 9.5%. For `COc1ccc2nc(O)ccc2c1`, the inhibition was 25.8%. The same measure, in the same setting: then `Cc1cc(=O)n(C)c2ccccc12`, with 42%.

For a further experiment the target is unchanged. Description: Compound was tested for 50% inhibition of crude aldose reductase obtained from rat lens.
Take `O=C(O)Cn1ccccc1=O`: the inhibition was 33%.

In a further experiment the target is Aldo-keto reductase family 1 member B1 (Rattus norvegicus, UniProt P07943). The experiment in a line: Inhibition of crude aldose reductase of rat lens.
Turning to `O=C(O)Cn1c(=O)ccc2cc(O)ccc21`, the IC50 came out at 2.4 µM. This lies in the single-digit micromolar range. The same measure, in the same setting: the value for `Cc1cc(=O)n(CCC(=O)O)c2ccccc12` was 110 µM; that for `Cc1cc(=O)n(CC(=O)O)c2ccc([N+](=O)[O-])cc12` was 0.45 µM; that for `Cc1cc(=O)n(C(C)C(=O)O)c2ccccc12` (stereo unspecified) was 470 µM. The same measure, in the same setting: the value for `COc1ccc2c(ccc(=O)n2C(C)C(=O)O)c1` (stereo unspecified) was 590 µM. Still for that read-out and setting: the value for `CC(C(=O)O)n1c(=O)ccc2cccc(O)c21` (stereo unspecified) was 33 µM; that for `O=C(O)CN1C(=O)c2cccc3cccc(c23)C1=O` [ALRESTATIN] was 1.5 µM; that for `Cc1cc(=O)n(CC(=O)O)c2ccccc12` was 6 µM. `COc1ccc2c(ccc(=O)n2CC(=O)O)c1` came in with an IC50 of 0.91 µM. On the same count and under the same terms, the value for `O=C(O)Cn1c(=O)ccc2cccc(O)c21` was 3.3 µM.
